{"source": "patent US6417175B1", "about": "“Phosphonocephem derivatives, process for the preparation of the same, and use thereof” (Takeda Chemical Industries, Ltd., priority 1997, dated 2002)", "assay": "Transformation into the amino form after incubation in mouse plasma at 37° C. (Experiment 1)", "assay_type": "in vitro ADME", "conditions": "10 mg equivalent/ml", "protocol": "The lyophilized 7β-[2(Z)-ethoxyimino-2-(5-phosphonoamino-1,2,4-thiadiazol-3-yl)acetamido]-3-[4-(1-methyl-4-pyridinio)-2-thiazolylthio]-3-cephem-4-carboxylate obtained in Working Example 6, was dissolved in mouse plasma to prepare 10 mg equivalent/ml solution. After incubation at 37° C., the transformation rate into 7β-[2(Z)-ethoxyimino-2-(5-amino-1,2,4-thiadiazol-3-yl)acetamido]-3-[4-(1-methyl-4-pyridinio)-2-thiazolylthio]-3-cephem-4-carboxylate (amino form) was measured. The transformation rates in 30 minutes and 1 hour were as follows: […]"}
{"compound": "CCO/N=C(\\C(=O)N[C@@H]1C(=O)N2C(C(=O)[O-])=C(Sc3nc(-c4cc[n+](C)cc4)cs3)CS[C@H]12)c1nsc(NP(=O)(O)O)n1", "note": "[Working Example 6, 7β-[2(Z)-Ethoxyimino-2-(5-phosphonoamino-1,2,4-thiadiazol-3-yl)acetamido]-3-[4-(1-methyl-4-pyridinio)-2-thiazolylthio]-3-cephem-4-carboxylate]", "values": [{"measurement": "transformation rate into amino form", "setting": "30 minutes", "result": 35, "unit": "%"}, {"measurement": "transformation rate into amino form", "setting": "1 hour", "result": 62, "unit": "%"}]}
